Values belong to the sequence of their own block, whether it stands above or below them. Where no end group is shown, it is not given here.
Experiments:
H358 (lung cancer) = experiment: Cell viability by CellTiter Glo; format: cell-based; conditions: 300 μM-0.01 μM for 72 hours, FIG. 24
HCT15 (colon cancer) = experiment: Cell viability by CellTiter Glo; format: cell-based; conditions: 300 μM-0.01 μM for 72 hours, FIG. 24
HCT116 (colon cancer) = experiment: Cell viability by CellTiter Glo; format: cell-based; conditions: 300 μM-0.01 μM for 72 hours, FIG. 24
SW480 (colon cancer) = experiment: Cell viability by CellTiter Glo; format: cell-based; conditions: 300 μM-0.01 μM for 72 hours, FIG. 24
[1] = test system: β-catenin-mediated transcriptional activation (TCF/LEF); experiment: TOPFlash TCF/LEF reporter assay, reporter cells transfected with peptides; format: cell-based
Description: FIGS. 15A and 15B depict the results of a TOPFlash TCF/LEF reporter assay monitoring Wnt/β-catenin signaling pathway activity in cells expressing BC2059 (i.e., positive control) and Peptides 1-5.
A TOPFlash TCF/LEF reporter assay was performed with Peptides 1-5 as described in Veeman M T, et al. (2003) Curr Biol. 13(8):680-5. This is a luciferase reporter assay of (3-catenin-mediated transcriptional activation. Tegatrabetan (BC2059) was used as a positive control in the TOPFlash TCF/LEF reporter assay. Briefly, TCF/LEF reporter cells were transfected with the nucleofection kit. After 48 hours, the ONE-STEP™ luciferase assay was performed.

TBL1/β-catenin complex = target: T1, TBL1/β-catenin complex (Homo sapiens, UniProt O60907); experiment: Sandwich ELISA peptide library screening in colon cancer cell lysates; format: binding; conditions: screening of individual peptides, FIG. 7
T1 construct: TBL1/β-catenin complex from lysates of a colon cancer cell with active Wnt signaling was captured; endogenous in cells; host or cells: HCT15 and SW480 colon cancer cell lysates, cells pre-treated with 20 mM LiCl
T1 sequence (O60907 1-577): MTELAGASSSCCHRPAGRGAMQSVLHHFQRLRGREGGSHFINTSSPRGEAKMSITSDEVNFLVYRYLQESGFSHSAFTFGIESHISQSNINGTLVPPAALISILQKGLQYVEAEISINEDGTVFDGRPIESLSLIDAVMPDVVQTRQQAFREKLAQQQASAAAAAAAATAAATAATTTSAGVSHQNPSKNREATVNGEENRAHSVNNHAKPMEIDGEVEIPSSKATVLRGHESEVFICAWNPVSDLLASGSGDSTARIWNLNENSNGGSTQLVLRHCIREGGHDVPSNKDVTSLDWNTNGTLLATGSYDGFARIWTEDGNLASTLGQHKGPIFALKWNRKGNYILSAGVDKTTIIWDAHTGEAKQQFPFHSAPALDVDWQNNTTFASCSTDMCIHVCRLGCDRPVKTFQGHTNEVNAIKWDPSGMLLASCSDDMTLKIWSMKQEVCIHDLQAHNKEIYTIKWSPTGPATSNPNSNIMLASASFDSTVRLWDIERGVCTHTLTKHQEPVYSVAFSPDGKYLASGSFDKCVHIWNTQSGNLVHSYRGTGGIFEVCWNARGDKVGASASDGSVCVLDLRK
Description: To identify the peptide or peptides able to disrupt the interaction between TBL1 and (3-catenin, the sandwich ELISA approach was used (see FIG. 4). In this assay TBL1/β-catenin complex from lysates of a colon cancer cell with active Wnt signaling was captured in a Protein G ELISA 96-well plate coated with antibody that recognizes TBL1. To ensure activation of Wnt signaling, the cells were pre-treated with 20 mM LiCl for 12 h a 37° C. The bound complex was then exposed to peptides from the library either as single peptides or in a combination of 2 or 3 peptides to ensure coverage of the potential binding site between TBL1 and β-catenin. After washing away unbound proteins, the plates were incubated with β-catenin antibodies labeled with ALEXA FLUOR® 488 dye, and the level of β-catenin associated to TBL1 was quantified by a plate reader that detects the ALEXA FLUOR® 488 fluorescence probe. As a form of TBL1/β-catenin complex, we used colon cancer cell lines HCT15 and SW480. All the experiments were conducted in triplicate to ensure statistical significance. To reduce variability the assays were performed by using the EPMOTION® liquid handler. We designed a program that controls the peptide seeding into the ELISA plate wells: 1, 2 or 3 peptides per well, with overlap of one peptide in each well.
All wells in the screening were loaded with 1 mg/ml of lysate and incubated at 37° C. for 1 hour. After a wash, peptide combinations were added at a concentration of […] for each peptide and incubated at 37° C. for 2 hours followed by β-catenin detection as described. […] The SW480 lysate standard curve was generated by varying the concentration of lysate without any peptides present.
Additional screening was performed with the peptide library using the assay described in Example 2 with the colon cancer cell lines HCT15 and SW480.
Combinations of three peptides were subsequently assayed at varying concentrations to show a dose response in the disruption of the interaction between TBL1 and β-catenin.
To identify the peptide or peptides able to disrupt the interaction between TBL1 and (3-catenin, we tested the Sandwich ELISA approach. In this assay TBL1/β-catenin complex from lysates of colon cancer cell with active Wnt signaling, is captured in Protein G ELISA 96 well plate coated with antibody that recognizes TBL1. To ensure activation of Wnt signaling, the cells are pre-treated with 20 mM LiCl for 12 h a 37° C. The bound complex is then exposed to peptides from the library either as single peptide or in a combination of 2 or 3 peptides to ensure coverage of the potential binding site between TBL1 and β-catenin. After washing away unbound proteins, the plates are incubated with β-catenin antibodies labeled with Alexa Fluor 488 dye, and the level of β-catenin associated to TBL1 is quantified by a plate reader that detects the 488 fluorescence probe. As a font of TBL1/β-catenin complex we used colon cancer cell lines HCT15 and SW480. All the experiments are conducted in triplicated to ensure statistical significance, and to reduce variability we perform the assays by using the EpiMotion liquid handler. We designed a program that controls the peptide seeding into the ELISA plate wells: 1, 2 or 3 peptides per well, with overlap of one peptides in each well.

[2] = test system: transcription activity downstream TCF/LEF; experiment: TOPFlash assay in HEK293 TCF/LEF luciferase cells stimulated with LiCl and Wnt3a, peptide treatment; format: cell-based; conditions: peptide at 5 μM for 6 hours, FIG. 17
Description: FIG. 17 presents a TOPFlash assay to determine transcription activity downstream TCF/LEF: HEK293 cells containing a luciferase downstream TCF/LEF were LiCl was administered 16 hours prior to treatment to stimulate the Wnt pathway. Then the cells were treated with recombinant Wnt3a to stimulate transcription and peptide at 5 μM or BC-2059 at 0.5 μM for 6 hours before luciferase expression was quantified with the One-Step Luciferase assay system.
FIG. 22 presents TOPFlash assay to determine transcription activity downstream TCF/LEF: HEK293 cells containing a luciferase downstream TCF/LEF were with LiCl 16 hours prior to treatment to stimulate the Wnt pathway. Then they were treated with recombinant Wnt3a to stimulate transcription and peptide 16 (short) and 2 (long) at 5 μM or BC-2059 at 0.5 μM for 6 hours before luciferase expression was quantified with the One-Step Luciferase assay system.
FIG. 23 presents TOPFlash assay results to determine transcription activity downstream TCF/LEF dependency to peptides: HEK293 cells containing a luciferase downstream TCF/LEF were with LiCl 16 hours prior to treatment to stimulate the Wnt pathway. Then they were treated with recombinant Wnt3a to stimulate transcription and peptide 16 (short) and 2 (long) at different concentrations (300 μM-0.01 μM) for 6 hours before luciferase expression was quantified with the One-Step Luciferase assay system. […]

[3] = test system: transcription downstream TCF/LEF; experiment: Washout TOPFlash assay; format: cell-based; conditions: FIG. 18
Description: FIG. 18 presents wash out TOPFlash at 8, 12,18, and 24 hour time points: to investigate the effects of peptide 3 over time with a washout TOPFlash assay. To do this we followed the same procedure previously stated but performed washouts at 8, 12, 18, and 24 hour time points. This experiment was completed in duplicate.
FIG. 18 presents wash out TOPFlash at 8, 12,18, and 24 hour time points: to investigate the effects of peptide 3 over time with a washout TOPFlash assay. To do this we followed the same procedure previously stated but performed washouts at 8, 12, 18, and 24 hour time points.
This experiment was completed in duplicate.

[4] = target: T2, TBL1 complex (β-catenin displacement) (Homo sapiens, UniProt O60907); experiment: Homologous competitive ELISA with increasing logarithmic peptide concentrations; format: binding; conditions: increasing logarithmic concentrations of each peptide, FIG. 11
T2 sequence (O60907 1-577): T1 sequence (O60907 1-577)

β-catenin bound to TBL1 = target: T3, β-catenin bound to TBL1 (Homo sapiens, UniProt O60907); experiment: Pull-down assay with TBL1 in SW480 cells transfected with peptides, Western blot; format: cell-based; conditions: FIG. 14
T3 construct: endogenous in cells; host or cells: SW480 colorectal cancer cells (only the peptides and the GFP control were transfected)
T3 sequence (O60907 1-577): T1 sequence (O60907 1-577)
From the text: FIG. 13 depicts a pull-down assay with TBL1 in the SW480 colorectal cancer (CRC) cell line transfected with the selected peptides.
Tegatrabetan (BC2059) is an antagonist of β-Catenin and was used as a positive control in the pull-down experiments. […] Green fluorescent protein (GFP) was also transfected into the SW480 cells as a negative control.

Sequence: VDSVLFYAITTLHNLLLHQEGAKMAVRLAGGLQKMVALLNKTNV [Peptide 2]
cytotoxic effect (cell viability) (H358 (lung cancer)): cytotoxic effect
cytotoxic effect (cell viability) (HCT15 (colon cancer)): cytotoxic effect
cytotoxic effect (cell viability) (HCT116 (colon cancer)): cytotoxic effect
cytotoxic effect (cell viability) (SW480 (colon cancer)): cytotoxic effect

Sequence: HQLSKKEASRHAIMRSPQMVSAIVRTMONTNDVETARCTAGTLH (HQLSKKEASRHAIMRSPQMVSAIVRTMQNTNDVETARCTAGTLH) [Peptide 1, longer peptide, from b112 on]
β-catenin-mediated transcriptional activation (luciferase) ([1]; initial evaluation of all five peptides, 48 hours after transfection, FIG. 15A): significant decrease
β-catenin-mediated transcriptional activation (luciferase) ([1]; second experiment evaluating only Peptide 1, FIG. 15B): confirmed the earlier result

Sequence: LKVLSVCSSNKPAIVEAGGM [Pep18]
disrupting the interaction between TBL1 and β-catenin (TBL1/β-catenin complex): showed efficacy

Sequence: TYEKLLWTTSRVLKVLSVCS [Pep17]
disrupting the interaction between TBL1 and β-catenin (TBL1/β-catenin complex): showed efficacy

Sequence: RTMQNTNDVETARCTAGTLH [Pep6]
cytotoxic effect (cell viability) (H358 (lung cancer)): cytotoxic effect
cytotoxic effect (cell viability) (HCT15 (colon cancer)): cytotoxic effect
cytotoxic effect (cell viability) (HCT116 (colon cancer)): cytotoxic effect
cytotoxic effect (cell viability) (SW480 (colon cancer)): cytotoxic effect

The next lines start with results.

luciferase produced after washout ([3]; peptide washed out after 8 and 12 hours, compared to the non washout control): increase in luciferase produced
Sequence: NQESKLIILASGGPQALVNIMRTYTYEKLLWTTSRVLKVLSVCS [Peptide 3, longer peptide; in b127-b129 apparently used as CPP peptide]
levels of luciferase after treatment [2]: decreased levels of luciferase
blocking transcription downstream TCF/LEF ([3]; conclusion of washout TOPFlash): specific and effective

disrupting the interaction between TBL1 and β-catenin (TBL1/β-catenin complex): showed efficacy
Sequence: AIVEAGGMQALGLHLTDPSQ [Pep19]

disrupting the interaction between TBL1 and β-catenin (TBL1/β-catenin complex): showed efficacy
amount of β-catenin bound to TBL1 (β-catenin bound to TBL1): most pronounced effects
Sequence: LKVLSVCSSNKPAIVEAGGMQALGLHLTDPSQRLVQNCLWTLRN [Peptide 4]
displacement of β-catenin from the TBL1 complex [4]: able to displace β-catenin from the TBL1 complex in a dose dependent manner

disrupting the interaction between TBL1 and β-catenin (TBL1/β-catenin complex): showed efficacy
amount of β-catenin bound to TBL1 (β-catenin bound to TBL1): most pronounced effects
Sequence: VVTCAAGILSNLTCNNYKNKMMVCQVGGIEALVRTVLRAGDRED [Peptide 5, longer peptide; in b127 apparently used as CPP peptide]
displacement of β-catenin from the TBL1 complex [4]: able to displace β-catenin from the TBL1 complex in a dose dependent manner
levels of luciferase after treatment [2]: decreased levels of luciferase

— patent US20250222062A1, “PEPTIDE INHIBITORS TARGETING THE TBL1-BETA-CATENIN COMPLEX” (THE TRANSLATIONAL GENOMICS RESEARCH INSTITUTE, priority 2022, published 2025)
